According to patent US8664265B2, “Stable dosage forms of spiro and dispiro 1,2,4-trioxolane antimalarials” (Ranbaxy Laboratories Limited, priority 2005, dated 2014):

Experiments:
[1] = Water content by Karl Fischer method in the compatibility studies; format: physicochemical
Method: (§1) The role of excipients and water content was evaluated by conducting compatibility studies of active compound with various excipients, in different proportions and evaluating the extent of degradation by forced degradation at 60° C. over the period of 2 weeks and at 50° C. for 4 weeks. The water content was analyzed using Karl Fischer method and the total related substances (% w/w) were determined by HPLC method.

[2] = Compatibility studies of active compound with excipients, forced degradation, total related substances by HPLC; format: physicochemical
Method: as §1

[3] = with Aerosol, Drug:Excipient 1:0.1
[4] = with Croscarmellose sodium, Drug:Excipient 1:0.5
[5] = with Cross povidone, Drug:Excipient 1:0.5
[6] = with Dicalcium phosphate, Drug:Excipient 1:2^
[7] = with Dicalcium phosphate, Drug:Excipient 1:10
[8] = with Hydroxypropyl methylcellulose 5 cps, Drug:Excipient 1:0.5
[9] = with Mg. Stearate, Drug:Excipient 1:0.1
[10] = with Micro crystalline cellulose, Drug:Excipient 1:10
[11] = with Microcrystalline cellulose, Drug:Excipient 1:2^
[12] = with Opadry ®, Drug:Excipient 1:0.5
[13] = with Pearlitol, Drug:Excipient 1:2^
[14] = with Pearlitol, Drug:Excipient 1:10
[15] = with Polyethylene glycol 400, Drug:Excipient 1:0.1
[16] = with Polyvinyl pyrrolidone K 30, Drug:Excipient 1:0.5
[17] = with Sodium lauryl sodium, Drug:Excipient 1:0.5
[18] = with Sodium starch glycolate, Drug:Excipient 1:0.5
[19] = with Starch, Drug:Excipient 1:2^
[20] = with Talc, Drug:Excipient 1:0.1
[21] = with Titanium dioxide, Drug:Excipient 1:0.5
[22] = with Starch, Drug:Excipient 1:10

Structure (SMILES): CC(C)(N)CNC(=O)C[C@H]1CC[C@]2(CC1)OOC1(O2)C2CC3CC(C2)CC1C3.O=C(O)/C=C\C(=O)O (stereo partly drawn) [Active compound I, cis-adamantane-2-spiro-3′-8′-[[[(2′-amino-2′-methylpropyl)amino]carbonyl]-methyl]-1′,2′,4′-trioxaspiro[4.5]decane hydrogen maleate]
- Water (% w/w) [1, 3]: 0.27 % w/w
- Water (% w/w) [1, 4]: 0.59 % w/w
- Water (% w/w) [1, 5]: 3.49 % w/w
- Water (% w/w) [1, 6]: 2.01 % w/w
- Water (% w/w) [1, 7]: 2.14 % w/w
- Water (% w/w) [1, 8]: 1.22 % w/w
- Water (% w/w) [1, 9]: 0.46 % w/w
- Water (% w/w) [1, 10]: 4.94 % w/w
- Water (% w/w) [1, 11]: 3.69 % w/w
- Water (% w/w) [1, 12]: 0.46 % w/w
- Water (% w/w) [1, 13]: 0.02 % w/w
- Water (% w/w) [1, 14]: 0.52 % w/w
- Water (% w/w) [1, 15]: 0.88 % w/w
- Water (% w/w) [1, 16]: 3.02 % w/w
- Water (% w/w) [1, 17]: 0.79 % w/w
- Water (% w/w) [1, 18]: 1.43 % w/w
- Water (% w/w) [1, 19]: 4.73 % w/w
- Water (% w/w) [1, 20]: 0.12 % w/w
- Water (% w/w) [1, 21]: 0.18 % w/w
- Compatibility with excipient ([2]; Microcrystalline cellulose): most satisfactory results
- Compatibility with excipient ([2]; Starch, when used in higher amounts): incompatible
- Compatibility with excipient ([2]; dicalcium phosphate, at 60° C.): increase in related substances
- Compatibility with excipient ([2]; lactose, degradation by other mechanisms such as Maillard reaction): incompatible
- Total Related Substance (% w/w) After 2 weeks/60° C. [2, 3]: 0.86 % w/w
- Total Related Substance (% w/w) After 4 weeks/50° C. [2, 3]: 0.66 % w/w
- Total Related Substance (% w/w) Initial [2, 3]: 0.14 % w/w
- Total Related Substance (% w/w) After 2 weeks/60° C. [2, 4]: 0.35 % w/w
- Total Related Substance (% w/w) After 4 weeks/50° C. [2, 4]: 0.34 % w/w
- Total Related Substance (% w/w) Initial [2, 4]: 0.09 % w/w
- Total Related Substance (% w/w) After 2 weeks/60° C. [2, 5]: 0.68 % w/w
- Total Related Substance (% w/w) After 4 weeks/50° C. [2, 5]: 0.40 % w/w
- Total Related Substance (% w/w) Initial [2, 5]: 0.13 % w/w
- Total Related Substance (% w/w) After 2 weeks/60° C. [2, 6]: 1.32 % w/w
- Total Related Substance (% w/w) After 4 weeks/50° C. [2, 6]: 0.77 % w/w
- Total Related Substance (% w/w) Initial [2, 6]: 0.07 % w/w
- Total Related Substance (% w/w) After 2 weeks/60° C. [2, 7]: 6.07 % w/w
- Total Related Substance (% w/w) After 4 weeks/50° C. [2, 7]: 0.61 % w/w
- Total Related Substance (% w/w) Initial [2, 7]: 0.17 % w/w
- Total Related Substance (% w/w) After 2 weeks/60° C. [2, 8]: 1.05 % w/w
- Total Related Substance (% w/w) After 4 weeks/50° C. [2, 8]: 0.70 % w/w
- Total Related Substance (% w/w) Initial [2, 8]: 0.17 % w/w
- Total Related Substance (% w/w) After 2 weeks/60° C. [2, 9]: 0.86 % w/w
- Total Related Substance (% w/w) After 4 weeks/50° C. [2, 9]: 0.65 % w/w
- Total Related Substance (% w/w) Initial [2, 9]: 0.13 % w/w
- Total Related Substance (% w/w) After 2 weeks/60° C. [2, 10]: 1.02 % w/w
- Total Related Substance (% w/w) After 4 weeks/50° C. [2, 10]: 0.78 % w/w
- Total Related Substance (% w/w) Initial [2, 10]: 0.39 % w/w
- Total Related Substance (% w/w) After 2 weeks/60° C. [2, 11]: 0.74 % w/w
- Total Related Substance (% w/w) After 4 weeks/50° C. [2, 11]: 0.70 % w/w
- Total Related Substance (% w/w) Initial [2, 11]: 0.19 % w/w
- Total Related Substance (% w/w) After 2 weeks/60° C. [2, 12]: 0.96 % w/w
- Total Related Substance (% w/w) After 4 weeks/50° C. [2, 12]: 1.85 % w/w
- Total Related Substance (% w/w) Initial [2, 12]: 0.17 % w/w
- Total Related Substance (% w/w) After 2 weeks/60° C. [2, 13]: 0.77 % w/w
- Total Related Substance (% w/w) After 4 weeks/50° C. [2, 13]: 0.72 % w/w
- Total Related Substance (% w/w) Initial [2, 13]: 0.14 % w/w
- Total Related Substance (% w/w) After 2 weeks/60° C. [2, 14]: 0.70 % w/w
- Total Related Substance (% w/w) After 4 weeks/50° C. [2, 14]: 0.46 % w/w
- Total Related Substance (% w/w) Initial [2, 14]: 0.14 % w/w
- Total Related Substance (% w/w) After 2 weeks/60° C. [2, 15]: 0.68 % w/w
- Total Related Substance (% w/w) After 4 weeks/50° C. [2, 15]: 0.66 % w/w
- Total Related Substance (% w/w) Initial [2, 15]: 0.14 % w/w
- Total Related Substance (% w/w) After 2 weeks/60° C. [2, 16]: 0.79 % w/w
- Total Related Substance (% w/w) After 4 weeks/50° C. [2, 16]: 0.33 % w/w
- Total Related Substance (% w/w) Initial [2, 16]: 0.00 % w/w
- Total Related Substance (% w/w) After 2 weeks/60° C. [2, 17]: 1.59 % w/w
- Total Related Substance (% w/w) After 4 weeks/50° C. [2, 17]: 0.92 % w/w
- Total Related Substance (% w/w) Initial [2, 17]: 0.15 % w/w
- Total Related Substance (% w/w) After 2 weeks/60° C. [2, 18]: 0.89 % w/w
- Total Related Substance (% w/w) After 4 weeks/50° C. [2, 18]: 0.43 % w/w
- Total Related Substance (% w/w) Initial [2, 18]: 0.13 % w/w
- Total Related Substance (% w/w) After 2 weeks/60° C. [2, 19]: 0.74 % w/w
- Total Related Substance (% w/w) After 4 weeks/50° C. [2, 19]: 0.60 % w/w
- Total Related Substance (% w/w) Initial [2, 19]: 0.08 % w/w
- Total Related Substance (% w/w) After 2 weeks/60° C. [2, 22]: 4.13 % w/w
- Total Related Substance (% w/w) After 4 weeks/50° C. [2, 22]: 0.60 % w/w
- Total Related Substance (% w/w) Initial [2, 22]: 0.07 % w/w
- Total Related Substance (% w/w) After 2 weeks/60° C. [2, 20]: 0.90 % w/w
- Total Related Substance (% w/w) After 4 weeks/50° C. [2, 20]: 0.63 % w/w
- Total Related Substance (% w/w) Initial [2, 20]: 0.15 % w/w
- Total Related Substance (% w/w) After 2 weeks/60° C. [2, 21]: 0.93 % w/w
- Total Related Substance (% w/w) After 4 weeks/50° C. [2, 21]: 0.57 % w/w
- Total Related Substance (% w/w) Initial [2, 21]: 0.16 % w/w
